Measured values as given in patent US10379016B1, “Apparatus for inoculating agar plate” (priority 2018, dated 2019).

Tested on: S. aureus strain ATCC 29213
Experiment: Antimicrobial susceptibility test by disc diffusion method (zone of inhibition)
Assay type: cell-based
Conditions: microbial concentration 1 × 10^8 CFU/ml, 35-37° C., 18-20 h, NZI = No zone of inhibition; for Testing for zone of inhibition; Method of Inoculation: Swabbing: Mueller-Hinton agar plate inoculated by cotton swab; for Testing for zone of inhibition; Method of Inoculation: Apparatus, Double actuation / Testing for zone of inhibition; Method of Inoculation: Apparatus, Single actuation: Mueller-Hinton agar plate spray-inoculated with apparatus
Description: In an experiment, Mueller-Hinton Agar plates were prepared. Forty grams of Mueller-Hinton Agar (MHA) was suspended in 1 liter distilled water and then boiled to dissolve the powder completely. The medium was sterilized by autoclaving at 121° C. for 15 min. After autoclaving, the medium was cooled to 45° C. and poured 25 mL molten agar into sterile 90 mm diameter Petri dishes (petri plates) to give a depth of about 4 mm. The surface of the agar was dried to remove excess moisture before use.
The suspension density was measured by using an UV spectrophotometer. The density of the suspension was adjusted to McFarland 0.5 by addition of saline or more organisms. The number of colony forming units (CFU/ml) in the culture samples plays an important role in the incubation of the agar plates. For colony isolation, diluted microbial suspension (about 1-2×10^3 CFU/ml) can be sprayed over agar plate.
For comparison, some agar plates were inoculated by cotton swab. A sterile cotton swab was dipped into the bacterial suspension (1-2×10^8 CFU/ml) and the excess fluid removed by turning the swab against the inside of the tube to avoid over-inoculation of plates. The inoculum was spread evenly over the entire surface of the agar plate by swabbing in three directions.
Other agar plates were inoculated by using the present apparatus. The agar plates were inoculated with inoculum of bacterial suspension (1-2×10^8 CFU/ml). The bacterial suspension was filled in the reservoir of the present apparatus and then sprayed uniformly using the atomizer over an agar plate held inside the spray chamber using the atomizer.
Antimicrobial susceptibility tests of the S. aureus strain ATCC 29213 was determined by the disc diffusion method according to the recommendations and guidelines of Clinical Laboratory Standard Institutes (CLSI M100-S24; 2014). A panel of commercial antibiotic discs comprising Gentamicin (GM), Amikacin (AN), Chloramphenicol (C), Imipenem (IPM), Tetracycline (TE), Cefepime (FEP), Sulfamethoxazole/trimethoprim (SXT), Aztreonam (ATM) was used for susceptibility testing. All commercial antibiotic discs were purchased from BBL (Becton Dickinson, USA).
The predetermined panel of antimicrobial disks was applied firmly on the surface of inoculated Mueller-Hinton agar media by using a disc dispenser device.
Within 15 min of application of antimicrobial disks, the plates were inverted and incubated aerobically at 35-37° C. for 18-20 h.
After incubation, inhibition zones were read at the point where no obvious growth is detected by the unaided eye when the plate was held about 30 cm from the eye. The inhibition zone diameters were measured to the nearest millimeter with a ruler. The plates were read from the back of the plate with reflected light against a dark background. Zone diameters of antibiotics in swab inoculated plate were compared with zone diameter in apparatus-inoculated plates.

Compound	Testing for zone of inhibition; Method of Inoculation: Swabbing	Testing for zone of inhibition; Method of Inoculation: Apparatus, Double actuation	Testing for zone of inhibition; Method of Inoculation: Apparatus, Single actuation
CN(C)[C@@H]1C(O)=C(C(N)=O)C(=O)[C@@]2(O)C(O)=C3C(=O)c4c(O)cccc4[C@@](C)(O)[C@H]3C[C@@H]12 [TE, Tetracycline]	22 mm	24 mm	25 mm
NCC[C@H](O)C(=O)N[C@@H]1C[C@H](N)[C@@H](O[C@H]2O[C@H](CN)[C@@H](O)[C@H](O)[C@H]2O)[C@H](O)[C@H]1O[C@H]1O[C@H](CO)[C@@H](O)[C@H](N)[C@H]1O [AN, Amikacin]	22 mm	23 mm	26 mm
CO/N=C(\C(=O)N[C@@H]1C(=O)N2C(C(=O)[O-])=C(C[N+]3(C)CCCC3)CS[C@H]12)c1csc(N)n1 [FEP, Cefepime]	NZI	NZI	NZI
Gentamicin [GM]	21 mm	22 mm	22 mm
C[C@@H](O)[C@H]1C(=O)N2C(C(=O)O)=C(SCCN=CN)C[C@H]12 [IPM, Imipenem]	38 mm	38 mm	38 mm
O=C(N[C@H](CO)[C@H](O)c1ccc([N+](=O)[O-])cc1)C(Cl)Cl [C, Chloramphenicol]	21 mm	22 mm	22 mm
C[C@H]1[C@H](NC(=O)/C(=N\OC(C)(C)C(=O)O)c2csc(N)n2)C(=O)N1S(=O)(=O)O [ATM, Aztreonam]	NZI	NZI	NZI
